US20140271694A1, “ANTIGEN-SPECIFIC METHODS OF DIAGNOSING AND/OR TREATING MYOCARDITIS OR INFLAMMATORY CARDIOMYOPATHY” (Joslin Diabetes Center, Inc., priority 2013, published 2014)
Entries after “also recorded” stand apart in the source; their conditions may differ.

Key:
DQ8 = conditions: cited from earlier work
NOD mice = conditions: cited from earlier work
I-Ag7 = conditions: I-Ag7, dose dependent; cited from earlier work
[1] = tested on: alpha myosin HC presentation to DQ8 molecules; test: Cardiac myosin-specific DQ8-restricted Clone E T cell hybridoma (BWZ.36.CE, lacZ/β-galactosidase readout) antigen presentation assay; format: cell-based, human; conditions: in vitro, dose-dependent, DQ8-expressing APCs
Text: FIGS. 15A-C are data showing that the small molecule, tetraazatricyclododecane (TATD), that was predicted to bind pocket 6 of the DQ8 peptide-binding groove (Michels et al, Journal of immunology, 2011), inhibits cardiac myosin presentation by DQ8 to T cells. FIGS. 15A and B are graphs showing that T cell response to insulin B9:23 peptide, measured by IL-2 concentration, is blocked by TATD in a dose dependent manner, for DQ8 and I-Ag7 (Michels et al., Journal of Immunology, 2011). FIG. 15C is a graph showing that T cell response to cardiac myosin stimulation is blocked in vitro by TATD is a dose-dependent manner, in a manner similar to the blocking effect on insulin B9:23 presentation to DQ8. In this assay, T cell responses were measured using our cardiac myosin-specific DQ8-restricted (Clone E) T cell hybridoma that was engineered to produce β-galactosidase following T-cell receptor-antigen stimulation.
To assess the potential efficacy in the setting of post-infarct autoimmunity, we created a lacZ-inducible alpha myosin HC-specific CD4^+ T-cell hybridoma by fusing Clone E, a pathogenic DQ8-restricted CD4^+ T cell clone isolated from a myocarditic heart (Lv H et al., J Clin Invest, 2011) (FIGS. 14A-D), and BWZ.36 fusion partner (Karttunen J et al., Proc Natl Acad Sci USA, 1992), and successfully generated the hybrid, BWZ.36.CE. […]

C1CN2CN3CCN(CN1C3)C2 [TATD, tetraazatricyclododecane]
T cell response to insulin B9:23 peptide, measured by IL-2 concentration (DQ8; DQ8, dose dependent): blocked
relative potency of blocking DQ8 versus I-Ag7 molecules (DQ8; DQ8 compared with I-Ag7): more potently blocks DQ8 than I-A^g7
preventing T1D in NOD mice (NOD mice): efficacious
T cell response to insulin B9:23 peptide, measured by IL-2 concentration (I-Ag7): blocked
block of alpha myosin HC presentation to DQ8 molecules (T cell response to cardiac myosin stimulation) [1]: completely block; also recorded: blocked
